Earlier results in patent US20250366801A1, “ESTIMATION OF CEREBROVASCULAR RESERVE” (MedTrace Pharma A/S, priority 2024, published 2025).

Settings: single standard dose of 1000 mg intravenously; patients with atherosclerotic cerebrovascular disease (Vagal 2009)

Structure (SMILES): CC(=O)Nc1nnc(S(N)(=O)=O)s1 [Acetazolamide, acetazolamide]
- time of peak cerebral blood flow augmentation after the intravenous bolus injection: 10 to 15 min
